Test results as given in article PMC3930563, “Mycobacterium tuberculosis Exploits Asparagine to Assimilate Nitrogen and Resist Acid Stress during Infection” (PLoS Pathogens, 2014).

Target: AnsA (Rv1538c), recombinant AnsA-HIS6 (Mycobacterium tuberculosis, UniProt P9WPX5)
Sequence (P9WPX5 whole entry): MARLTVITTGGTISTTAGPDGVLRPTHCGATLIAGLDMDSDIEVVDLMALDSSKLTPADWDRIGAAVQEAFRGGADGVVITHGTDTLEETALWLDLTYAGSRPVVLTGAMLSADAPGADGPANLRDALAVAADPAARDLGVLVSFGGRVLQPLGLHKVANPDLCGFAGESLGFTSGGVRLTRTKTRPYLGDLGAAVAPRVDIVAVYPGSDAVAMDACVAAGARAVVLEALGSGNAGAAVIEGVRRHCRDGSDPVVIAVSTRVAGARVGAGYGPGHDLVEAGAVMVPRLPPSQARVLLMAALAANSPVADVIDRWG

In the case of `NC(=O)C[C@H](N)C(=O)O` [Asn, asparagine], the “coupled glutamate dehydrogenase assay, NADPH disappearance at 340 nm” value is reported as “revealed that AnsA mediates asparagine hydrolysis (Fig. 1E)”.
